Data as given in PubChem BioAssay AID1963871 (Molecular Pharmacology Branch, DTP, NCI, 2024).

System: KRAS-mutant PDC multicell tumor spheroid viability
Assay: Anticancer human tumor 521955-158-R2-J5-PDC patient-derived pancreatic carcinoma cell line growth inhibition [KRAS2]
Details: for IC50: curve of first compound; for viability, T/C: stronger effect = lower value
How it was run: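 Combination screen of spheroid viability in tumor-cell co-cultures with endothelial (HUVEC) and mesenchymal stem cell stroma. Each agent was tested in half-log dilutions, topping at clinical Cmax or at 10 microM without a known Cmax.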

[1] = second compound 0.0316 µM, first compound 0.0316 µM
[2] = second compound 0.0316 µM, first compound 0.1 µM
[3] = second compound 0.0316 µM, first compound 0.316 µM
[4] = second compound 0.0316 µM, first compound 1 µM
[5] = second compound 0.0316 µM, first compound 3.16 µM
[6] = second compound 0.0316 µM, first compound 10 µM
[7] = second compound 0.1 µM, first compound 0.0316 µM
[8] = second compound 0.1 µM, first compound 0.1 µM
[9] = second compound 0.1 µM, first compound 0.316 µM
[10] = second compound 0.1 µM, first compound 1 µM
[11] = second compound 0.1 µM, first compound 3.16 µM
[12] = second compound 0.1 µM, first compound 10 µM
[13] = second compound 0.316 µM, first compound 0.0316 µM
[14] = second compound 0.316 µM, first compound 0.1 µM
[15] = second compound 0.316 µM, first compound 0.316 µM
[16] = second compound 0.316 µM, first compound 1 µM
[17] = second compound 0.316 µM, first compound 3.16 µM
[18] = second compound 0.316 µM, first compound 10 µM
[19] = second compound 1 µM, first compound 0.0316 µM
[20] = second compound 1 µM, first compound 0.1 µM
[21] = second compound 1 µM, first compound 0.316 µM
[22] = second compound 1 µM, first compound 1 µM
[23] = second compound 1 µM, first compound 3.16 µM
[24] = second compound 1 µM, first compound 10 µM
[25] = second compound 3.16 µM, first compound 0.0316 µM
[26] = second compound 3.16 µM, first compound 0.1 µM
[27] = second compound 3.16 µM, first compound 0.316 µM
[28] = second compound 3.16 µM, first compound 1 µM
[29] = second compound 3.16 µM, first compound 3.16 µM
[30] = second compound 3.16 µM, first compound 10 µM
[31] = second compound 0.0316 µM, first compound 0.00316 µM
[32] = second compound 0.0316 µM, first compound 0.01 µM
[33] = second compound 0.1 µM, first compound 0.00316 µM
[34] = second compound 0.1 µM, first compound 0.01 µM
[35] = second compound 0.316 µM, first compound 0.00316 µM
[36] = second compound 0.316 µM, first compound 0.01 µM
[37] = second compound 1 µM, first compound 0.00316 µM
[38] = second compound 1 µM, first compound 0.01 µM
[39] = second compound 3.16 µM, first compound 0.00316 µM
[40] = second compound 3.16 µM, first compound 0.01 µM
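Further: viability read after seven days of drug exposure.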

CC(C)NCC(C(=O)N1CCN(c2ncnc3c2C(C)CC3O)CC1)c1ccc(Cl)cc1 (stereo not given) + C=CC(=O)N1CCN(c2nc(OCC3CCCN3C)nc3c2CCN(c2cccc4cccc(C)c24)C3)CC1CC#N
IC50 (second compound 0.0316 µM): > 10000 nM | IC50 (second compound 0.1 µM): > 10000 nM | IC50 (second compound 0.316 µM): > 10000 nM | IC50 (second compound 1 µM): > 10000 nM | IC50 (second compound 3.16 µM): < 31.6 nM | viability, T/C [1]: 108% | viability, T/C [2]: 110% | viability, T/C [3]: 84.5% | viability, T/C [4]: 87.1% | viability, T/C [5]: 92.3% | viability, T/C [6]: 65.8% | viability, T/C [7]: 103% | viability, T/C [8]: 103% | viability, T/C [9]: 84.5% | viability, T/C [10]: 83.6% | viability, T/C [11]: 79.6% | viability, T/C [12]: 59.8% | viability, T/C [13]: 97.5% | viability, T/C [14]: 92.3% | viability, T/C [15]: 76.2% | viability, T/C [16]: 73.5% | viability, T/C [17]: 75.4% | viability, T/C [18]: 52.1% | viability, T/C [19]: 81.6% | viability, T/C [20]: 80.4% | viability, T/C [21]: 65.8% | viability, T/C [22]: 59.2% | viability, T/C [23]: 62.3% | viability, T/C [24]: 50.6% | viability, T/C [25]: 12.2% | viability, T/C [26]: 14.6% | viability, T/C [27]: 17% | viability, T/C [28]: 11.6% | viability, T/C [29]: 3.96% | viability, T/C [30]: 1.11%

CCN1CCN(Cc2ccc(Nc3ncc(F)c(-c4cc(F)c5nc(C)n(C(C)C)c5c4)n3)nc2)CC1 + C=CC(=O)N1CCN(c2nc(OCC3CCCN3C)nc3c2CCN(c2cccc4cccc(C)c24)C3)CC1CC#N
IC50 (second compound 0.0316 µM): > 1000 nM | IC50 (second compound 0.1 µM): > 1000 nM | IC50 (second compound 0.316 µM): > 1000 nM | IC50 (second compound 1 µM): > 1000 nM | IC50 (second compound 3.16 µM): < 3.16 nM | viability, T/C [31]: 93.5% | viability, T/C [32]: 107% | viability, T/C [1]: 91.8% | viability, T/C [2]: 85.9% | viability, T/C [3]: 110% | viability, T/C [4]: 83.6% | viability, T/C [33]: 102% | viability, T/C [34]: 94.2% | viability, T/C [7]: 87.5% | viability, T/C [8]: 95.8% | viability, T/C [9]: 106% | viability, T/C [10]: 84.8% | viability, T/C [35]: 85.3% | viability, T/C [36]: 106% | viability, T/C [13]: 90% | viability, T/C [14]: 72.3% | viability, T/C [15]: 104% | viability, T/C [16]: 90% | viability, T/C [37]: 89.3% | viability, T/C [38]: 78.3% | viability, T/C [19]: 80.6% | viability, T/C [20]: 82.5% | viability, T/C [21]: 84.6% | viability, T/C [22]: 81.9% | viability, T/C [39]: 19.2% | viability, T/C [40]: 19.5% | viability, T/C [25]: 16% | viability, T/C [26]: 11.1% | viability, T/C [27]: 4.58% | viability, T/C [28]: 0.34%

CCNC(=O)CC1N=C(c2ccc(Cl)cc2)c2cc(OC)ccc2-n2c(C)nnc21 (stereo not given) + C=CC(=O)N1CCN(c2nc(OCC3CCCN3C)nc3c2CCN(c2cccc4cccc(C)c24)C3)CC1CC#N
IC50 (second compound 0.0316 µM): 395 nM | IC50 (second compound 0.1 µM): 340 nM | IC50 (second compound 0.316 µM): 302 nM | IC50 (second compound 1 µM): 291 nM | IC50 (second compound 3.16 µM): < 31.6 nM | viability, T/C [1]: 106% | viability, T/C [2]: 94.9% | viability, T/C [3]: 52.9% | viability, T/C [4]: 38% | viability, T/C [5]: 32.4% | viability, T/C [6]: 34.2% | viability, T/C [7]: 96.3% | viability, T/C [8]: 79.4% | viability, T/C [9]: 50.7% | viability, T/C [10]: 36% | viability, T/C [11]: 34.3% | viability, T/C [12]: 30.1% | viability, T/C [13]: 103% | viability, T/C [14]: 97.6% | viability, T/C [15]: 47.8% | viability, T/C [16]: 35.2% | viability, T/C [17]: 31.6% | viability, T/C [18]: 32.7% | viability, T/C [19]: 84.3% | viability, T/C [20]: 77% | viability, T/C [21]: 48.1% | viability, T/C [22]: 30.1% | viability, T/C [23]: 28.1% | viability, T/C [24]: 29.4% | viability, T/C [25]: 29.8% | viability, T/C [26]: 22% | viability, T/C [27]: 22.2% | viability, T/C [28]: 0.29% | viability, T/C [29]: 14.3% | viability, T/C [30]: 11.2%

Cn1ncnc1[C@H]1c2n[nH]c(=O)c3cc(F)cc(c23)N[C@@H]1c1ccc(F)cc1 + C=CC(=O)N1CCN(c2nc(OCC3CCCN3C)nc3c2CCN(c2cccc4cccc(C)c24)C3)CC1CC#N
IC50 (second compound 0.0316 µM): > 100 nM | IC50 (second compound 0.1 µM): > 100 nM | IC50 (second compound 0.316 µM): > 100 nM | IC50 (second compound 1 µM): > 100 nM | IC50 (second compound 3.16 µM): < 0.316 nM | viability, T/C (second compound 0.0316 µM, first compound 0.000316 µM): 111% | viability, T/C (second compound 0.0316 µM, first compound 0.001 µM): 114% | viability, T/C [31]: 103% | viability, T/C [32]: 81.4% | viability, T/C [1]: 91.6% | viability, T/C [2]: 82.5% | viability, T/C (second compound 0.1 µM, first compound 0.000316 µM): 104% | viability, T/C (second compound 0.1 µM, first compound 0.001 µM): 96.9% | viability, T/C [33]: 86.9% | viability, T/C [34]: 85.5% | viability, T/C [7]: 81.3% | viability, T/C [8]: 77.6% | viability, T/C (second compound 0.316 µM, first compound 0.000316 µM): 99.6% | viability, T/C (second compound 0.316 µM, first compound 0.001 µM): 94.4% | viability, T/C [35]: 93.9% | viability, T/C [36]: 72.3% | viability, T/C [13]: 75% | viability, T/C [14]: 66.5% | viability, T/C (second compound 1 µM, first compound 0.000316 µM): 78.3% | viability, T/C (second compound 1 µM, first compound 0.001 µM): 82.7% | viability, T/C [37]: 78.5% | viability, T/C [38]: 69.2% | viability, T/C [19]: 67.4% | viability, T/C [20]: 62.7% | viability, T/C (second compound 3.16 µM, first compound 0.000316 µM): 15.8% | viability, T/C (second compound 3.16 µM, first compound 0.001 µM): 10.9% | viability, T/C [39]: 10.7% | viability, T/C [40]: 8.52% | viability, T/C [25]: 9.22% | viability, T/C [26]: 8.81%
